Molecules are shown by their SMILES.

Compound `NC(=O)c1ccccc1C1c2ccc(Cl)cc2Oc2cc(Cl)ccc21` came in with a melting point of 218 to 220 °C.

In turn, `Cn1c(C(F)(F)F)cc(=O)n(-c2c(F)cc(Cl)c3cc(-c4ccccc4)oc23)c1=O` yielded a melting point of 215 to 216 °C.

In the case of `Cn1nc(-c2ncc(Cl)cc2F)cc1Br`, the melting point lay within 110 to 111 °C.

`S=C1CNC(=S)c2cc(Cl)ccc2N1` showed a melting point of 273 to 274 °C.

`CNc1cccc(NC(=O)CO)c1C#N` registered a melting point of 160 to 162 °C.

On to `N#CCc1c(C(=O)O)cc2ccc3c(c2c1-c1ccc(F)cc1)OCO3`, for which the melting point lay within 230 to 233 °C.

`CC(=O)C=Cc1ccc(C#N)cc1` returned a melting point of 103 to 106 °C.

In the case of `Cc1cncc(-c2cncc(OC3SCC(O)C(O)C3O)c2)c1` (configuration not stated), the melting point lay within 119 to 120 °C.

The compound `O=C(O)CCCOc1ccc(CCNC(=O)C2Cc3ccccc3N2S(=O)(=O)c2ccc(-c3cccc(C(F)(F)F)c3)cc2)cc1` (configuration not stated) registered a melting point of 70 °C.

For `C=CCN1C2CCC1C1CCC2N1C(c1ccc(C(=O)N2CCCCC2)cc1)c1cccc(O)c1` (configuration not stated), the melting point lay in the range of 133 to 135 °C.

Compound `CNC(=O)C#CCc1ccc(OC)cc1` displayed a melting point of 123 to 124 °C.

Compound `CC(=O)OCC(OC(C)=O)c1nc2c(C(F)(F)F)cccc2c(O)c1C(=O)Nc1nccs1` (configuration not stated) yielded a melting point of 270 °C.

`COC(=O)c1ccc(OCC(C)C)c([N+](=O)[O-])c1` yielded a melting point of 77 °C.

Regarding `CS(=O)(=O)OCCCC(c1ccccc1)c1ccccc1`, the melting point is 85 to 88 °C.

In turn, `CCCCCC(Br)C(Br)CC(Br)C(Br)CCCCCCCBr` (configuration not stated) gave a melting point of 62 to 64 °C.

As to `COC(=O)c1cc(N)cc(CNC(=O)OC(C)(C)C)c1`, the melting point was in the range of 57 to 65 °C.

As to `CCS(=O)(=O)Nc1ccc2[nH]cc(C3=CCN(C)CC3)c2c1`, the melting point is 224 to 226 °C.

`C=C(C)C(=O)Oc1c(Cc2cc(C)cc(C(C)(C)C)c2O)cc(C)cc1C(C)(C)C` gave a melting point of 144 to 146 °C.

Consider `Cc1nn(C2CCCCC2)c(N)c1C(N)=O`, for which the melting point lay in the range of 181 to 182 °C.

`CCCCCCc1ccc(-c2ccc(-c3ccc(-c4ccc(-c5ccc(-c6ccc(CCCCCC)o6)o5)o4)o3)o2)o1` returned a melting point of 261 °C.

The compound `CCc1nn2ccc3c(c2c1C(C)C#N)CCO3` (configuration not stated) came in with a melting point of 86 to 88 °C.

On to `COc1cc2c(c3c1OC(C)(C)C3)C(c1cccc(N3C(=O)c4ccccc4C3=O)c1)=NC(C)(C)C2`, for which the melting point is 162 to 168 °C.

`CC(C)c1nn(-c2ccc(C(F)(F)F)cn2)cc1CCCO` returned a melting point of 87 to 88 °C.

Compound `FC(F)(F)c1ccnc(Oc2ccc(CCNc3ncnc4nccnc34)cc2)c1` showed a melting point of 147 to 149 °C.

Take `CCn1cc(C(=O)O)c(=O)c2cc(F)c(N3C[C@@H](N)[C@@H](C)C3)c(Cl)c21` (relative stereo): the melting point is 222 to 224 °C.

As to `CC(C(=O)O)c1ccc(-c2ccccc2)cc1` (configuration not stated), the melting point was 144 to 145 °C.

In turn, `CSc1nc(O)c(-c2ccc(C)cc2)c(O)n1` showed a melting point of 226 °C.

As for `Cc1cc(NS(=O)(=O)c2cc(C3(O)CCC(=O)N3C)ccc2Cl)cc(C(C)(C)C)c1O` (configuration not stated), the melting point was 120 °C.

Compound `CC(=NOCc1ccc(Cl)s1)C1=C(O)CC(C2CCCSC2)CC1=O` (configuration not stated) returned a melting point of 154 to 155 °C.

Take `CC(C)c1c(/C=C/[C@@H]2C[C@@H](O)CC(=O)O2)n(-c2ccc(F)cc2)c(=O)c2ccccc12`: the melting point fell in the range of 207 to 209 °C.

Consider `O=Cc1ccc2c(c1)CC[C@H](Cc1ccc(O)cc1)O2`, for which the melting point lay within 134 to 135 °C.

With `O=C(Nc1ccc2cc(CN3CCCCC3)ccc2c1)c1ccc(-c2ccc(Cl)cc2)cc1`, the melting point was in the range of 220 to 222 °C.

Compound `Cc1cccc2c1CC(n1ccnc1C(N)=O)C2=O` (configuration not stated) returned a melting point of 160 °C.

`COc1ccc(C(C#Cc2ccccc2)Cc2noc(C(F)(F)F)n2)cc1OC1CCCC1` (racemic) came in with a melting point of 96 to 98 °C.

Turning to `CCN(CC)CCCCC1CCN(CCNC(=O)N2c3ccccc3C(=O)Nc3cccnc32)CC1`, the melting point is 167 °C.

`OC(c1ccc(Cl)cc1)(c1ccc(Cl)cc1)C1CO1` (configuration not stated) came in with a melting point of 87 to 88 °C.

`CCn1c(=O)c2c(nc(/C=C/c3ccc(OC)c(C)c3OC)n2C)n(CC)c1=O` came in with a melting point of 196 to 197 °C.

As to `CCc1nn(Cc2ccccn2)c2c(=O)[nH]c(-c3cc(S(C)(=O)=O)ccc3OCCOC)nc12`, the melting point was 166 to 167 °C.

In the case of `CC(CCCc1ccccc1)(C(=O)O)c1ccc(CCCNC(=O)c2ccc(-c3ccccn3)cc2)cc1` (configuration not stated), the melting point fell in the range of 118 to 119 °C.

For `COc1cc2c(cc1OC)CN(CCc1ccc(NC(=O)c3cccc4c(=O)c5cccc(OC)c5sc34)cc1)CC2`, the melting point lay in the range of 218 to 219 °C.

For `Cc1ccc(S(=O)(=O)NC(=O)Nc2c(Br)cc(Br)cc2Br)cc1`, the melting point stood at 230 °C.

`COc1ccccc1-n1c(=O)[nH]c2c(C(N)=O)nc(-c3cccc4[nH]ccc34)nc21` came in with a melting point of 312 to 313 °C.

In the case of `CC(=O)Oc1ccc(C(=O)Nc2ncc(S(C)(=O)=O)s2)cc1`, the melting point lay within 280 to 281 °C.

Consider `Nc1cnc(-c2ccncc2)c(-c2cccc(F)c2)n1`, for which the melting point lay within 221 to 222 °C.

For the compound `COC(=O)c1ccc(Cn2c(=O)c(C)c3sc(C(=O)NCc4ccc(F)cc4)cn3c2=O)cc1C`, the melting point was in the range of 179 to 180 °C.

`Cc1c(C(=O)OCc2ccccc2)[nH]c2cc3c(sc4ccccc43)c(C)c12` came in with a melting point of 203 to 204 °C.

Consider `O=C=Nc1c(Cl)cc(Cl)cc1Cl`, for which the melting point lay in the range of 65 to 66 °C.

For the compound `CN(C)c1ccc(OCC(=O)c2cccc(Cl)c2)cc1`, the melting point lay within 69 to 70 °C.

On to `O=[N+]([O-])c1cccc(Cc2nnn[nH]2)c1`, for which the melting point stood at 140 °C.

The compound `COC(=O)Cc1ccc2c(c1)N(C)Cc1ccccc1C2=O` showed a melting point of 88.4 to 90.5 °C.

For the compound `CCNC(=O)N(NC(=O)c1cccc(Cl)c1)C(C)(C)C`, the melting point fell in the range of 67 to 68 °C.

In turn, `C=C(C)C(=O)OCCCOc1ccc2cc(OC(=O)C(=C)C)ccc2c1` came in with a melting point of 68 °C.

`O=C(O)Cc1ccc(NC(=O)C(COc2cccnc2)NS(=O)(=O)c2ccc(Br)cc2)cc1` (racemic) showed a melting point of 205 to 207 °C.

`COc1ccc(NC(=NC#N)NC(NC(=O)c2cccc(Cl)c2)C(C)(Cl)Cl)cn1` (configuration not stated): the melting point fell in the range of 189 to 190 °C.

As to `Cc1ccccc1Nc1nc(N(C)c2ccccc2)c2cccc(OCCCN(C)C)c2n1`, the melting point lay within 77 to 79 °C.

Compound `O=c1c(OC(F)F)cn(-c2cccc(C(F)(F)F)c2)nc1-c1ccnn1-c1ccccc1` yielded a melting point of 132 to 134 °C.

Turning to `CN(CCC#N)c1nc(Nc2cccc(NS(C)(=O)=O)c2)nc2[nH]cnc12`, the melting point lay in the range of 218 to 222 °C.

Consider `Oc1cccc(-c2ocnc2-c2onc(-c3ccccc3)c2-c2ccccc2)c1`, for which the melting point lay in the range of 199 to 200 °C.

The compound `COCCNS(=O)(=O)c1ccc2[nH]c(=O)c(=O)[nH]c2c1` displayed a melting point of 264 to 267 °C.

With `COc1c(Br)c(O)c(C=O)c(OC)c1Br`, the melting point lay in the range of 103 to 104 °C.

For the compound `CC(Cc1sc(Br)cc1Cl)NC(=O)c1cn(C)nc1C(F)F` (configuration not stated), the melting point is 157 to 158 °C.

Take `CCCOC1(C(F)(F)F)CN(C2CC2)C(=O)Nc2ccc(Cl)cc21` (configuration not stated): the melting point lay in the range of 153 to 154 °C.

In turn, `CCCC(=O)c1cnc2c(OCCOCCO)cccc2c1Nc1ccc(F)cc1C` showed a melting point of 144 to 145 °C.

For the compound `COc1ccc2cc(C3=C(CC(=O)O)CCCC3=O)ccc2c1Br`, the melting point was 165 to 166 °C.

Consider `CC1(C)C(=O)Nc2ccc(-c3ccc(C#N)s3)cc21`, for which the melting point lay in the range of 255 to 256 °C.

`Cc1nnc(Br)n1-c1ccc(Cl)cc1C(=O)c1ccccc1` gave a melting point of 198 to 199 °C.

Regarding `COC(=O)CSc1cccc(CNC(=O)C2Cc3ccccc3N2S(=O)(=O)c2ccc(-c3cccc(C(F)(F)F)c3)cc2)c1` (configuration not stated), the melting point came out at 51 °C.

Compound `CS(=O)(=O)Oc1ccc(O)cc1` registered a melting point of 82 to 84 °C.

For `CCOC(=O)c1ccc2nccc(Cl)c2c1`, the melting point is 84 to 85 °C.

For the compound `COc1nc(C)nc(N(C)C(=O)NS(=O)(=O)c2ccccc2OC(F)(F)F)n1`, the melting point is 162 °C.

In turn, `O=C(Nc1ccn2cc(CO)nc2c1)c1cc2cc(C(F)(F)F)ccc2n1Cc1cccc(F)c1` had a melting point of 254 to 255 °C.

On to `CN(Cc1ccccc1)Cc1ccc(N)cc1`, for which the melting point is 48 to 50 °C.

`CC12CCC(=O)C=C1CCC1C2CCC2(C)C(OC(=O)CCl)CCC12` (configuration not stated) gave a melting point of 125 to 126 °C.

The compound `CCC12CC(Cl)C3C4CCC(=O)C=C4CCC3C1C(OC(C)=O)CC2=O` (configuration not stated) displayed a melting point of 125 °C.

Compound `COC(=O)C12COc3ccccc3C1NN(C(=O)Nc1ccc(C(F)(F)F)cc1)C2` (configuration not stated) yielded a melting point of 211 to 212 °C.

For the compound `CC(C)(C)OC(=O)NC(CO)COc1noc2ccc(Cl)cc12` (configuration not stated), the melting point is 121 to 122 °C.

`CC(C)(C)C1(O)CCN(CC23CC(c4ccc(Cl)cc42)c2ccc(Cl)cc23)CC1` came in with a melting point of 194 to 196 °C.

Consider `Cc1cc2c(cc1Cl)C(NCCC1CCN(C(=O)OC(C)(C)C)CC1)(c1ccccc1Cl)C(=O)N2` (configuration not stated), for which the melting point is 245 to 248 °C.

Regarding `CC(=O)c1cc(OCC(O)COc2ccc(C#N)cc2)ccc1O` (configuration not stated), the melting point lay in the range of 118 to 120 °C.

Regarding `COC(=O)c1cc(C)cc(CNO)c1`, the melting point was in the range of 99 to 100 °C.

Compound `COc1ccc(-c2nc(C3=NNC(=O)CC3)sc2-c2ccc(OC)cc2)cc1` showed a melting point of 242 to 247 °C.

Consider `C[C@@H](SCC(N)=O)[C@](O)(Cn1cncn1)c1ccc(F)cc1F`, for which the melting point was in the range of 144 to 145 °C.

For the compound `N=C(c1ccccc1)c1cc(Cl)ccc1O`, the melting point is 129 to 131 °C.

In turn, `COCCOc1cc(N(C)S(=O)(=O)c2ccccn2)c2[nH]c(C3=NCC(CN4CCS(=O)(=O)CC4)S3)cc2c1` (configuration not stated) had a melting point of 115 °C.

Take `CCCc1c(OCCOc2ccccc2C(=O)OC)ccc(C(C)=O)c1O`: the melting point is 84 to 87 °C.

Regarding `OCc1ccccc1NCc1cc2c(cc1O)CCCO2`, the melting point lay within 141 to 142 °C.

The compound `Clc1ccc(N2CCN(Cc3n[nH]c4ccccc34)CC2)cc1` returned a melting point of 223 to 224 °C.

For orientation: melting point means the temperature, or range, at which the solid turns liquid.
